Reference: PMC3827197, “Antidiabetic Effects of Chamomile Flowers Extract in Obese Mice through Transcriptional Stimulation of Nutrient Sensors of the Peroxisome Proliferator-Activated Receptor (PPAR) Family” (PLoS ONE, 2013)

How the values were obtained:
PPARα = target: T1, PPARα (Homo sapiens, UniProt Q07869); assay: Reporter gene assay of transcriptional activation, PPARα (HEK 293, GAL4-PPAR-LBD); type: cell-based; settings: relative to reference compound GW7647
T1 construct: HEK 293 cells were stably expressing a GAL4-PPAR-LBD fusion protein and an UAS-beta-lactamase reporter gene; host or cells: HEK 293
T1 sequence (Q07869 239-466 limits assumed): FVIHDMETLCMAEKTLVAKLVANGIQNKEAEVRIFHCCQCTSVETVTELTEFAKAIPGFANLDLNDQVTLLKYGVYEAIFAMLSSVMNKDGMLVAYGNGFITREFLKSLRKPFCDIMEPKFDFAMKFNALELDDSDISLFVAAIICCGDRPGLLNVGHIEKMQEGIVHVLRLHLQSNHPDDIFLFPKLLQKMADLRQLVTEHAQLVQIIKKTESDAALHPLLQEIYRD
Description: Transcriptional activation of PPARs was assessed in cellular reporter gene assays according to the manufacturer’s protocols (GeneBLAzer PPAR alpha/gamma/delta Assay, Life Technologies). Briefly, HEK 293 cells were stably expressing a GAL4-PPAR-LBD fusion protein and an UAS-beta-lactamase reporter gene. Cells were incubated with different concentrations of compounds resulting in differential expression of the reporter gene. Binding and activation assays were measured with the POLARstar Omega (BMG LABTECH, Offenburg, Germany). Data were fitted using GraphPad Prism 5.0 according equation: Y=Bottom + (Top-Bottom)/(1+10^((LogEC50-X)*HillSlope)) with variable Hill slope.

[1] = system: PPARα target genes in HepG2 cells; assay: qPCR gene expression in HepG2 hepatocytes, with PPARα siRNA knockdown; settings: 300 µg/ml CFE or 10 µM GW7647, 24 h, vs vehicle
Description: Specificity of PPARα-driven modulation was investigated in siRNA-mediated knockdown in human hepatocytes and subsequent real-time PCR detection. Therefore, HepG2 cells were seeded in 24-well-plates (Nunc) at a density of 40,000 cells per well.

HFD-fed C57BL/6 mice = assay: Therapy study in insulin-resistant obese HFD-fed (DIO) mice; settings: CFE 200 mg/kg/d or RGZ 4 mg/kg/d
Description: Animal studies were approved by the State Office of Health and Social Affairs (Berlin, Germany) and were carried out according internationally approved guidelines. All animals were singly housed under temperature-, humidity- and light-controlled conditions (22°C, 50% humidity, 12 h light/12 h dark cycle). Mice had ad libitum access to food and water. Mice, food and water were weighed in a regularly to determine changes in body weight and food and water intake.
For the therapy study, we subjected male 6-week old C57BL/6 mice to an HFD for 18 weeks to induce obesity and insulin resistance. Prior to compound treatment, mice were weighed and distributed uniformly to three groups (n=9-14 each). […] After 2 weeks of treatment mice were subjected to an oral glucose tolerance test (OGTT). […]
Mice were fasted overnight before being subjected to an oral glucose (Sigma-Aldrich) dose of 2 g/kg body weight. Blood was taken from the tail vein at the indicated time points and blood glucose was analysed in a Hemocue B-Glucose analyser (Hemocue, Großostheim, Germany). […]
Whole blood glucose was analysed in a Hemocue B-Glucose analyser. Plasma glucose was measured using the Amplex Red Glucose Assay Kit (Life Technologies). Plasma triacylglycerol, NEFA, HDL and LDL/VLDL cholesterol and plasma alanine transaminase (ALT) were determined with colorimetric quantification kits (Biovision, Milpitas, CA, USA). […]

**Q.** How did the “Efficacy PPARα” value (PPARα) turn out when `CC(C)(Sc1ccc(CCN(CCCCC2CCCCC2)C(=O)NC2CCCCC2)cc1)C(=O)O` [GW7647] was run?
**A.** Its value is 100%.

**Q.** And the “Expression of PPARα target genes (ACOX2, CPT 2, ECH1, HMGCS2)” value [1]?
**A.** Its value is “significantly induced expression”.

**Q.** `CN(CCOc1ccc(CC2SC(=O)NC2=O)cc1)c1ccccn1` (stereo not shown) [RGZ, rosiglitazone] was tested. Which “Gene expression of inflammatory markers in WAT” value (HFD-fed C57BL/6 mice; 6 weeks, qPCR) did it give?
**A.** The value was “remained largely unchanged”.

**Q.** And the “HOMA-IR insulin resistance, decrease” value (HFD-fed C57BL/6 mice; after 2 weeks)?
**A.** The value was 67%.
